Earlier results in patent US8052982B2, “Bioimplant formulation comprising lecithin and stearin” (Peptech Animal Health PTY Limited, priority 1998, dated 2011).

Structure (SMILES)	log octanol/water partition (log P)
C[C@H](CS)C(=O)N1CCC[C@H]1C(=O)O [captopril]	−1.86
Cn1c(=O)c2c(ncn2CCO)n(C)c1=O [etofylline]	0.35
CC(CN1c2ccccc2Sc2ccccc21)N(C)C (centres unmarked) [promethazine]	4.75
C[C@H](N[C@@H](CCc1ccccc1)C(=O)O)C(=O)N1Cc2ccccc2C[C@H]1C(=O)O [quinaprilate]	0.69
CCC[C@H](N[C@@H](C)C(=O)N1[C@H](C(=O)O)C[C@@H]2CCCC[C@@H]21)C(=O)O [perindoprilate]	−0.36
C[C@H](N[C@@H](CCc1ccccc1)C(=O)O)C(=O)N1[C@H](C(=O)O)C[C@H]2CCCC[C@@H]21 [trandolaprilate]	1.02
C[C@@H](O)[C@@H]1NC(=O)[C@H](CCCCN)NC(=O)[C@@H](Cc2c[nH]c3ccccc23)NC(=O)[C@H](Cc2ccccc2)NC(=O)[C@@H](NC(=O)[C@H](N)Cc2ccccc2)CSSC[C@@H](C(=O)N[C@H](CO)[C@@H](C)O)NC1=O [octreotide]	1.40
O=C(O)c1ccccc1Nc1cccc(C(F)(F)F)c1 [flufenamic acid]	1.14
